Results reported in patent US12421212B2, “Substituted benzenecarboxamides as IL-17A modulators” (DiCE Alpha, Inc., priority 2019, dated 2025).

Target: T1, IL-17A/A (Homo sapiens, UniProt Q16552)
T1 construct: purchased Genscript Z03228
T1 sequence (Q16552 24-155): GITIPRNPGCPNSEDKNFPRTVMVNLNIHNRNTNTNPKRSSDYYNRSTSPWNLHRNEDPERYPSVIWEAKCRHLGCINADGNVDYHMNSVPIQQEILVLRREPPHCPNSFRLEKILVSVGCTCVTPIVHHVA
Test: IL-17A/A HEK-Blue Cell Assay
Format: cell-based
Details: HEK-Blue IL-17A reporter cell line, SEAP readout at A630, 20 hours incubation with IL-17A/A, top concentration 10 uM, 1 uM or 0.3 uM; for IC50: read-out: IL-17A/A inhibition (pIC50) (converted)

## CCC(=O)N[C@@H](C(=O)N1CCN(C)CC1)[C@@H](C)c1ccc(NC(=O)[C@@H](NC(=O)c2conc2C2CC2)[C@H]2CC[C@H](C)CC2)c(F)c1 [Compound 279]
  IC50: 10 to 100 nM

## CCC(=O)N[C@@H](C(=O)N1CCN(C)CC1)[C@@H](C)c1ccc(NC(=O)[C@@H](NC(=O)c2cccn2CC)[C@H]2CC[C@H](C)CC2)c(F)c1 [Compound 280]
  IC50: 10 to 100 nM

## CCC(=O)N[C@@H](C(=O)N1CCN(C)CC1)[C@@H](C)c1ccc(NC(=O)[C@@H](NC(=O)C(F)(F)c2cncc(OC)c2)[C@H]2CC[C@H](C)CC2)c(F)c1 [Compound 281]
  IC50: 10 to 100 nM

## CCC(=O)N[C@@H](C(=O)N1CCN(C)CC1)[C@@H](C)c1ccc(NC(=O)[C@@H](NC(=O)C(F)(F)c2cccc(C#N)c2)[C@H]2CC[C@H](C)CC2)c(F)c1 [Compound 282]
  IC50: < 10 nM

## CCC(=O)N[C@@H](C(=O)N1CCN(C)CC1)[C@@H](C)c1ccc(NC(=O)[C@@H](NC(=O)c2cccn2CC2CC2)[C@H]2CC[C@H](C)CC2)c(F)c1 [Compound 283]
  IL-17A/A inhibition (pIC50): A (compounds having a pIC50 of greater than or equal 8 as A)

## CCC(=O)N[C@@H](C(=O)N1CCN(C)CC1)[C@@H](C)c1ccc(NC(=O)[C@@H](NC(=O)c2conc2C(C)C)[C@H]2CC[C@H](C)CC2)c(F)c1 [Compound 284]
  IC50: < 10 nM

## CCC(=O)N[C@@H](C(=O)N1CCN(C)CC1)[C@@H](C)c1ccc(NC(=O)[C@@H](NC(=O)C(F)(F)c2ccc(OC)nc2)[C@H]2CC[C@H](C(F)(F)F)CC2)c(F)c1 [Compound 285]
  IC50: 10 to 100 nM

## CCC(=O)N[C@@H](C(=O)N1CCN(C)CC1)[C@@H](C)c1ccc(NC(=O)[C@@H](NC(=O)C(F)(F)c2cccc(C#N)c2)[C@H]2CC[C@H](C(F)(F)F)CC2)c(F)c1 [Compound 286]
  IC50: 10 to 100 nM

## CCC(=O)N[C@@H](C(=O)N1CCN(C)CC1)[C@@H](C)c1ccc(NC(=O)C(NC(=O)c2conc2CC)C2CCc3ccccc32)c(F)c1 (stereo partly shown) [Compound 287]
  IC50: < 10 nM

## CCC(=O)N[C@@H](C(=O)N1CCN(C)CC1)[C@@H](C)c1ccc(NC(=O)C(NC(=O)c2ccnn2CC)[C@H](C)c2ccccc2)c(F)c1 (stereo partly shown) [Compound 288]
  IC50: 10 to 100 nM

## CCC(=O)N[C@@H](C(=O)N1CCN(C)CC1)[C@@H](C)c1ccc(NC(=O)C(NC(=O)c2ccnn2CC)[C@@H](C)c2ccccc2)c(F)c1 (stereo partly shown) [Compound 289]
  IC50: 10 to 100 nM

## CCC(=O)N[C@@H](C(=O)N1CCN(C)CC1)[C@@H](C)c1ccc(NC(=O)C(NC(=O)C(F)(F)c2cccc(C#N)c2)[C@@H](C)c2ccccc2)c(F)c1 (stereo partly shown) [Compound 290]
  IC50: < 10 nM

## CCC(=O)N[C@@H](C(=O)N1CCN(C)CC1)[C@@H](C)c1ccc(NC(=O)C(NC(=O)c2ccnn2C(C)C)[C@@H](C)c2ccccc2)c(F)c1 (stereo partly shown) [Compound 291]
  IC50: 10 to 100 nM

## CCC(=O)N[C@@H](C(=O)N1CCN(C)CC1)[C@@H](C)c1ccc(NC(=O)C(NC(=O)C(F)(F)c2cccc(C#N)c2)C2CCCC2)c(F)c1 (stereo partly shown) [Compound 292]
  IC50: 10 to 100 nM

## CCC(=O)N[C@@H](C(=O)N1CCN(C)CC1)[C@@H](C)c1ccc(NC(=O)C(NC(=O)c2ccnn2CC)C(CC)c2ccccc2)c(F)c1 (stereo partly shown) [Compound 293]
  IC50: 10 to 100 nM

## CCC(=O)N[C@@H](C(=O)N1CCN(C)CC1)[C@@H](C)c1ccc(NC(=O)[C@@H](NC(=O)C(F)(F)c2ccc(OC)nc2)[C@H]2CC[C@H](C)CC2)c(F)c1 [Compound 295]
  IC50: < 10 nM

## CCC(=O)N[C@@H](C(=O)N1CCN(C)CC1)[C@@H](C)c1ccc(NC(=O)[C@@H](NC(=O)c2ccnn2CC)C2CCC(C)(C)CC2)c(F)c1 [Compound 296]
  IC50: 10 to 100 nM

## CCC(=O)N[C@@H](C(=O)N1CCN(C)CC1)[C@@H](C)c1ccc(NC(=O)[C@@H](NC(=O)c2ccnn2CC)C2CCCCCC2)cc1 [Compound 297]
  IC50: 10 to 100 nM

## CCC(=O)N[C@@H](C(=O)N1CCN(C)CC1)[C@@H](C)c1ccc(NC(=O)[C@@H](NC(=O)c2conc2CC)C2CCCCC2)cc1 [Compound 298]
  IC50: 10 to 100 nM

## CCC(=O)N[C@@H](C(=O)N1CCN(C)CC1)[C@@H](C)c1ccc(NC(=O)[C@@H](NC(=O)c2ccnn2CC)[C@H]2CC[C@H](C)CC2)cc1 [Compound 299]
  IC50: 10 to 100 nM

## CCC(=O)N[C@@H](C(=O)N1CCN(C)CC1)[C@@H](C)c1ccc(NC(=O)[C@@H](NC(=O)C(F)(F)c2cccc(C#N)c2)C2CCCCC2)cc1 [Compound 300]
  IC50: 10 to 100 nM

## C[C@@H](c1ccc(NC(=O)[C@@H](NC(=O)C(F)(F)c2cccc(C#N)c2)C2CCCCC2)cc1)[C@@H](NC(=O)c1cnns1)C(=O)N1CCN(C)CC1 [Compound 301]
  IC50: < 10 nM

## CCC(=O)N[C@H](Cc1ccc(NC(=O)[C@@H](NC(=O)C(F)(F)c2cccc(C#N)c2)C2CCCCC2)c(F)c1)C(=O)N1CCN(C)CC1 [Compound 302]
  IC50: 10 to 100 nM

## CCn1nccc1C(=O)N[C@H](C(=O)Nc1ccc([C@H](C)[C@@H](NC(=O)c2cncs2)C(=O)N2CCN(C)CC2)cc1F)C1CCCCC1 [Compound 303]
  IC50: 10 to 100 nM

## CCn1nccc1C(=O)N[C@H](C(=O)Nc1ccc([C@H](C)[C@@H](NC(=O)c2cccs2)C(=O)N2CCN(C)CC2)cc1F)C1CCCCC1 [Compound 304]
  IC50: 10 to 100 nM

## CCn1nccc1C(=O)N[C@H](C(=O)Nc1ccc([C@H](C)[C@@H](NC(=O)c2cnsc2)C(=O)N2CCN(C)CC2)cc1F)C1CCCCC1 [Compound 305]
  IC50: 10 to 100 nM

## CCn1nccc1C(=O)N[C@H](C(=O)Nc1ccc([C@H](C)[C@@H](NC(=O)c2cnnn2C)C(=O)N2CCN(C)CC2)cc1F)C1CCCCC1 [Compound 306]
  IC50: 10 to 100 nM

## CCn1nccc1C(=O)N[C@H](C(=O)Nc1ccc([C@H](C)[C@@H](NC(=O)CC2CC2)C(=O)N2CCN(C)CC2)cc1F)C1CCCCC1 [Compound 307]
  IC50: 10 to 100 nM

## C[C@@H](c1ccc(NC(=O)[C@@H](NC(=O)C(F)(F)c2cccc(C#N)c2)C2CCCCC2)c(F)c1)[C@@H](NC(=O)CC1CC1)C(=O)N1CCN(C)CC1 [Compound 308]
  IC50: < 10 nM

## COc1cncc(C(F)(F)C(=O)N[C@H](C(=O)Nc2ccc([C@H](C)[C@@H](NC(=O)c3cnns3)C(=O)N3CCN(C)CC3)cc2F)C2CCCCC2)c1 [Compound 309]
  IC50: 10 to 100 nM

## CCn1nccc1C(=O)N[C@H](C(=O)Nc1ccc([C@H](C)[C@@H](NC(=O)c2cnns2)C(=O)N2CCN(C)CC2)cc1F)C1CCCCC1 [Compound 310]
  IC50: 10 to 100 nM

## C[C@@H](c1ccc(NC(=O)[C@@H](NC(=O)C(F)(F)c2cccc(C#N)c2)C2CCCCC2)c(F)c1)[C@@H](NC(=O)c1cnns1)C(=O)N1CCN(C)CC1 [Compound 311]
  IC50: < 10 nM

## CC(C)n1nccc1C(=O)N[C@H](C(=O)Nc1ccc([C@H](C)[C@@H](NC(=O)c2cnns2)C(=O)N2CCN(C)CC2)cc1F)C1CCCCC1 [Compound 312]
  IC50: < 10 nM

## CCn1nccc1C(=O)N[C@H](C(=O)Nc1ccc([C@H](C)[C@@H](NS(=O)(=O)CC)C(=O)N2CCN(C)CC2)cc1F)C1CCCCC1 [Compound 313]
  IC50: 10 to 100 nM

## CCn1nccc1C(=O)N[C@H](C(=O)Nc1ccc([C@H](C)[C@@H](NC(=O)NC2CC2)C(=O)N2CCN(C)CC2)cc1F)C1CCCCC1 [Compound 314]
  IC50: 10 to 100 nM

## CC(C)n1nccc1C(=O)N[C@H](C(=O)Nc1ccc([C@H](C)[C@@H](NC(=O)NC2CC2)C(=O)N2CCNCC2)cc1F)C1CCCCC1 [Compound 315]
  IL-17A/A inhibition (pIC50): A (compounds having a pIC50 of greater than or equal 8 as A)

## C[C@@H](c1ccc(NC(=O)[C@@H](NC(=O)C(F)(F)c2cccc(C#N)c2)C2CCCCC2)c(F)c1)[C@@H](NC(=O)NC1CC1)C(=O)N1CCN(C)CC1 [Compound 316]
  IC50: < 10 nM

## CNC(=O)N[C@@H](C(=O)N1CCN(C)CC1)[C@@H](C)c1ccc(NC(=O)[C@@H](NC(=O)C(F)(F)c2cccc(C#N)c2)C2CCCCC2)c(F)c1 [Compound 317]
  IC50: 10 to 100 nM

## C[C@@H](c1ccc(NC(=O)[C@@H](NC(=O)C(F)(F)c2cccc(C#N)c2)C2CCCCC2)c(F)c1)[C@@H](NC(=O)NC1CCC1)C(=O)N1CCN(C)CC1 [Compound 318]
  IC50: 10 to 100 nM

## CCC(=O)N[C@@H](C(=O)N1CCN(C)CC1)[C@@H](CC)c1ccc(NC(=O)[C@@H](NC(=O)c2ccnn2CC)C2CCCCCC2)cc1 [Compound 319]
  IC50: 10 to 100 nM

## CCn1nccc1C(=O)N[C@H](C(=O)Nc1ccc(C[C@@H](Nc2ncnc3cnccc23)C(=O)N2CCN(C)CC2)cc1F)C1CCCCC1 [Compound 320]
  IC50: 10 to 100 nM

## CCn1nccc1C(=O)N[C@H](C(=O)Nc1ccc(C[C@@H](NC(=O)c2ccnn2C2CCN(C)CC2)C(=O)N2CCN(C)CC2)cc1F)C1CCCCC1 [Compound 321]
  IC50: 10 to 100 nM

## CCn1nccc1C(=O)N[C@H](C(=O)Nc1ccc(C[C@@H](NC(=O)c2cnns2)C(=O)N2CCN(C)CC2)cc1F)C1CCCCC1 [Compound 322]
  IC50: 10 to 100 nM

## COc1ccc(C(F)(F)C(=O)N[C@H](C(=O)Nc2ccc(C[C@@H](NC(=O)c3cnns3)C(=O)N3CCN(C)CC3)cc2F)C2CCCCC2)cn1 [Compound 323]
  IC50: 10 to 100 nM

## COc1cncc(C(F)(F)C(=O)N[C@H](C(=O)Nc2ccc(C[C@@H](NC(=O)c3cnns3)C(=O)N3CCN(C)CC3)cc2F)C2CCCCC2)c1 [Compound 324]
  IC50: 10 to 100 nM

## CCC(=O)N[C@H](Cc1ccc(NC(=O)[C@@H](NC(=O)c2ccnn2CC)C2CCCCC2)c(F)c1)C(=O)N1CCN(Cc2ccccc2)CC1 [Compound 325]
  IC50: 10 to 100 nM

## CCn1nccc1C(=O)N[C@H](C(=O)Nc1ccc([C@H](C)[C@@H](NC(=O)C2(F)CC2)C(=O)N2CCN(C)CC2)cc1F)C1CCCCCC1 [Compound 326]
  IC50: 10 to 100 nM

## CCn1nccc1C(=O)N[C@H](C(=O)Nc1ccc([C@H](C)[C@@H](NC(=O)NC(C)C)C(=O)N2CCN(C)CC2)cc1F)C1CCCCCC1 [Compound 327]
  IC50: 10 to 100 nM

## CC(C)NC(=O)N[C@@H](C(=O)N1CCN(C)CC1)[C@@H](C)c1ccc(NC(=O)[C@@H](NC(=O)c2ccnn2C(C)C)C2CCCCCC2)c(F)c1 [Compound 328]
  IC50: 10 to 100 nM
